How the values were obtained:
[1] = pKa of the compound represented by formula (1); format: physicochemical
[2] = solubility of the compound represented by formula (1) in pH regulating solution, HPLC; format: physicochemical; details: thermodynamic from solid, 50 mM citric acid pH regulator with sucrose and polyethylene glycol 600, 1 hour at 5° C.
Description: 0.525 g of citric acid monohydrate was dissolved in injection-use distilled water, and a sodium hydroxide solution was used to adjust the pH while 5 g of sucrose and 1 g of polyethylene glycol 600 (stabilizer) were dissolved, thereby preparing 50 mL of various 50 mM pH regulators (with a pH of 5.6, 5.8, 6.0, 6.2, 6.4, or 6.6) containing sucrose and the stabilizer. 3 mL of the pH regulating solution thus prepared was put into a 5 mL vial containing approximately 9 mg of the compound represented by formula (1), and this was stored for 1 hour at 5° C. while being stirred. Thereafter, the solution (including a suspension) was filtered (0.22 μm filter), the first 1 mL of the filtrate was discarded, and the solution thus obtained was subjected to high-performance liquid chromatography (HPLC) to measure the concentration of the compound represented by formula (1), which was termed the solubility of the compound represented by formula (1). The pH of the solution was also measured at the same time.

solid tumor cell = details: in vivo; cited from earlier work
[3] = formulation study of the compound represented by formula (1): stability and crystal dissolution; format: physicochemical
[4] = system: VEGF (vascular endothelial growth factor) production; details: low-oxygen state in vitro; cited from earlier work

## CCC(O)C(C)C1OC1CC(C)(O)/C=C/C=C(\C)C1OC(=O)CC(O)CCC(C)(O)C(OC(=O)N2CCN(C3CCCCCC3)CC2)/C=C/C1C (stereo not drawn) [compound represented by formula (1), (8E,12E,14E)-7-((4-cycloheptylpiperazin-1-yl)carbonyl)oxy-3,6,16,21-tetrahydroxy-6, 10,12,16,20-pentamethyl-18,19-epoxytricosa-8,12,14-trien-11-olide]
[1]
  pKa: ~7.9
[2]; aqueous with cosolvent or surfactant or cyclodextrin, pH 5.79
  solubility at 1 h: > 2440 µg/mL
[2]; aqueous with cosolvent or surfactant or cyclodextrin, pH 5.99
  solubility at 1 h: > 2310 µg/mL
[2]; aqueous with cosolvent or surfactant or cyclodextrin, pH 6.51
  solubility at 1 h: > 2720 µg/mL
[2]; aqueous with cosolvent or surfactant or cyclodextrin, pH 6.81
  solubility at 1 h: 2570 µg/mL
[2]; aqueous with cosolvent or surfactant or cyclodextrin, pH 7.04
  solubility at 1 h: 1800 µg/mL
[2]; pH 6.2, aqueous with cosolvent or surfactant or cyclodextrin, pH 6.20
  solubility at 1 h: > 2260 µg/mL
Solid tumor cell
  action on solid tumor cell proliferation: suppressing solid tumor cell proliferation
[3]
  stability in the form of a crystalline powder: good stability
[3]; formulation of an injection
  stability in solution: not sufficiently stable
[3]; packed powder
  crystal dissolution: slow
[4]
  action on VEGF production: suppressing VEGF (vascular endothelial growth factor) production

From patent US20090325978A1, “STABLE LYOPHILIZED PREPARATION” (priority 2006, published 2009)
